What was measured:
[1] = Antitumor activity against NMU-induced mammary tumor in rat; type: functional
Aromatase [2] = molecular target: T1, Aromatase (Homo sapiens, UniProt P11511)
T1 sequence (P11511 whole entry): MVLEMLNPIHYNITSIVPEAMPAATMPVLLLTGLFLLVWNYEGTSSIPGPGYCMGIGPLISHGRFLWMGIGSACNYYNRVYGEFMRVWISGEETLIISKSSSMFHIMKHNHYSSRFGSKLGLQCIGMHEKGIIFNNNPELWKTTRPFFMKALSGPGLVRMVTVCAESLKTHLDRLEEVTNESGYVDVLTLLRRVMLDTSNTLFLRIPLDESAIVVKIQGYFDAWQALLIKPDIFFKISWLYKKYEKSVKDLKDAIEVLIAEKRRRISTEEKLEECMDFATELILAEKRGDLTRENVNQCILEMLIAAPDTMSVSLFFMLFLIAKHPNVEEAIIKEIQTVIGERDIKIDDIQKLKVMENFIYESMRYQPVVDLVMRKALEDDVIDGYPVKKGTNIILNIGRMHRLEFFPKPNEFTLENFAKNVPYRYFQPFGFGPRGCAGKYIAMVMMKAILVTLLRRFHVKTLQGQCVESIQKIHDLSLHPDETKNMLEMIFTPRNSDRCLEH

Aromatase [3] = molecular target: T1, Aromatase; assay: Inhibition of human aromatase after 30 mins by fluorescence assay
Aromatase [4] = molecular target: T1, Aromatase; assay: Inhibition of human aromatase extracted from placental microsomes using [1beta-3H]androstenedione as substrate after 30 mins
Aromatase [5] = molecular target: T1, Aromatase; assay: Inhibition of human aromatase extracted from placental microsomes using [1beta-3H]androstenedione as substrate at 10 to 500 nM after 30 mins; details: 0.5 h
Aromatase [6] = molecular target: T1, Aromatase; assay: Inhibition of human aromatase extracted from placental microsomes using [1beta-3H]androstenedione as substrate after 20 mins
Aromatase [7] = molecular target: T1, Aromatase; remark: listed apart in the source
Aromatase [8] = molecular target: T1, Aromatase; assay: Competitive inhibition of human aromatase extracted from placental microsomes by double reciprocal plot analysis in presence of 4-androstene-3,17-dione; details: read-out: Ki(app)
Aromatase [9] = molecular target: T1, Aromatase; assay: Competitive inhibition of human aromatase extracted from placental microsomes by Lineweaver- Burk plots analysis in presence of 4-androstene-3,17-dione
Aromatase [10] = molecular target: T1, Aromatase; assay: Inhibition of human aromatase extracted from placental microsomes at 520 nM after 10 mins
Aromatase [11] = molecular target: T1, Aromatase; assay: Time dependent inactivation of human aromatase extracted from placental microsomes using [1-3H]androstenedione as substrate
Aromatase [12] = molecular target: T1, Aromatase; assay: Competitive inhibition of human aromatase extracted from placental microsomes after 10 mins by Lineweaver- Burk plots analysis in presence of [1beta-3H]androstenedione
Aromatase [13] = molecular target: T1, Aromatase; assay: Inhibition of human aromatase extracted from placental microsomes using [1,2-3H]androstenedione as substrate after 30 mins by scintillation counting analysis
Aromatase [14] = molecular target: T1, Aromatase; assay: Inhibition of human aromatase extracted from placental microsomes using [1-3H]androstenedione as substrate at […]
Aromatase [15] = molecular target: T1, Aromatase; assay: Inhibition of human aromatase extracted from placental microsomes using [1beta,2beta-3H]androstenedione as substrate after 10 mins
Aromatase [16] = molecular target: T1, Aromatase; remark: listed apart in the source
Aromatase [17] = molecular target: T1, Aromatase; remark: listed apart in the source
Aromatase [18] = molecular target: T1, Aromatase; assay: Inhibition of human aromatase extracted from placental microsomes using 4-[14C]androstenedione/androstenedione as substrate assessed as estrogen formation after 30 mins in NADPH-generating system; details: 0.5 h
Aromatase [19] = molecular target: T2, Aromatase (Rattus norvegicus, UniProt P22443); assay: Inhibition of rat aromatase extracted from PMSG-primed ovarian fraction using 4-[14C]androstenedione/androstenedione as substrate assessed as estrogen formation after 30 mins in NADPH-generating system; details: 0.5 h
T2 sequence (P22443 whole entry): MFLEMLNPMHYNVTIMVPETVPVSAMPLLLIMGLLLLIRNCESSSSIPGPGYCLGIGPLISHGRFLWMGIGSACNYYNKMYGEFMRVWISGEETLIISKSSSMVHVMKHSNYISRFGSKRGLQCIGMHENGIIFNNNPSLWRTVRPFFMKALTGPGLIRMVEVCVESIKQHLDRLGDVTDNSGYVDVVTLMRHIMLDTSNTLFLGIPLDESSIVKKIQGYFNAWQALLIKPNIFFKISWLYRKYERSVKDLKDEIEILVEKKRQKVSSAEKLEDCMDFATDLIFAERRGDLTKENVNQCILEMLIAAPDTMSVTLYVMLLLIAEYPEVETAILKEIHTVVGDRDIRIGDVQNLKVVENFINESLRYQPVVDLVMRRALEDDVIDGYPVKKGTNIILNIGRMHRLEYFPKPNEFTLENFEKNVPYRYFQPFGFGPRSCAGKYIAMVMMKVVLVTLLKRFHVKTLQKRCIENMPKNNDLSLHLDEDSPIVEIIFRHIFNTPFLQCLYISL

Aromatase [20] = molecular target: T2, Aromatase; assay: Inhibition of aromatase in denucleated ovarian fraction extracted from PMSG pretreated Wistar rat by using testosterone as substrate at 1 uM

C[C@]12CCC(=O)C(F)=C1CC[C@@H]1[C@@H]2CC[C@]2(C)C(=O)CC[C@@H]12
Activity [1]: 44%
Ki (Aromatase [2]): 15 nM

C[C@]12C=CC(=O)C=C1CC[C@@H]1[C@@H]2CC[C@]2(C)C3=NN(c4ccccc4)[C@H](c4ccccc4)[C@H]3C[C@@H]12
IC50 (Aromatase [3]): 1820 nM

C[C@]12CCC(=O)c3onc(c31)C[C@@H]1[C@@H]2CC[C@]2(C)C(=O)CC[C@@H]12
IC50 (Aromatase [4]): 1890 nM
inhibition (INH) (Aromatase [5]): 50%

C[C@]12CC[C@H]3O[C@H]3[C@@H]1CC[C@@H]1[C@@H]2CC[C@]2(C)C(=O)CC[C@@H]12
IC50 (Aromatase [6]): 180 nM

C[C@]12CC[C@H]3[C@@H](CCC4=CC(=O)CC[C@@]43[C@@H]3CS3)[C@@H]1CCC2=O
Ki (Aromatase [7]): 2 nM

C[C@]12C=CC(=O)C=C1C[C@@H](Sc1cccc3ccccc13)[C@@H]1[C@@H]2CC[C@]2(C)C(=O)CC[C@@H]12
Ki (Aromatase [8]): 12 nM

C[C@]12CCC(=O)C=C1C[C@@H](Sc1ccc(Nc3ccc([N+](=O)[O-])cc3[N+](=O)[O-])cc1)[C@@H]1[C@@H]2CC[C@]2(C)C(=O)CC[C@@H]12
Ki (Aromatase [9]): 24.1 nM

CN1N=C2[C@H](C[C@H]3[C@@H]4CCC5=CC(=O)C=C[C@]5(C)[C@H]4CC[C@]23C)[C@H]1c1ccccc1
IC50 (Aromatase [3]): 1820 nM

C[C@]12CCC(=O)C=C1CC[C@@H]1[C@@H]2CC[C@]2(C)C(=O)[C@H](Br)C[C@@H]12
inhibition at […] (Aromatase [10]): 95%

C[C@]12CC[C@H]3[C@@H](CCC4=CC(=O)[C@H]5C[C@H](O)[C@]43C5)[C@@H]1CCC2=O
Ki (Aromatase [11]): 926 nM

C[C@]12CC[C@H]3[C@@H](Cc4noc5c4[C@]3(C)CC[C@@H]5O)[C@@H]1CC[C@@H]2O
IC50 (Aromatase [4]): 120000 nM
inhibition (INH) (Aromatase [5]): 50%

C[C@]12C=CC(=O)C(Sc3ccccc3)=C1C=C[C@@H]1[C@@H]2CC[C@]2(C)C(=O)CC[C@@H]12
Ki (Aromatase [12]): 9.8 nM

C[C@]12CCC(=O)C(Oc3ccccc3)=C1CC[C@@H]1[C@@H]2CC[C@]2(C)C(=O)CC[C@@H]12
IC50 (Aromatase [13]): 530 nM

C[C@]12CCC(=O)C=C1C[C@@H](Sc1ccc(Br)cc1)[C@@H]1[C@@H]2CC[C@]2(C)C(=O)CC[C@@H]12
inhibition at […] (Aromatase [14]): 45%

C[C@]12C=CC(=O)C=C1CC[C@@H]1[C@@H]2CC[C@]2(C)C(=O)OC[C@@H]12
Ki (Aromatase [7]): 260 nM

C[C@]12CCC(=O)C(SCCl)=C1CC[C@@H]1[C@@H]2CC[C@]2(C)C(=O)CC[C@@H]12
IC50 (Aromatase [15]): 940 nM

C[C@]12CCC(=O)C(c3ccc(OS(N)(=O)=O)cc3)=C1CC[C@@H]1[C@@H]2CC[C@]2(C)C(=O)CC[C@@H]12
IC50 (Aromatase [6]): 990 nM
Ki (Aromatase [16]): 97 nM

C[C@]12CCC(=O)C(Sc3ccccc3)=C1CC[C@@H]1[C@@H]2CC[C@]2(C)C(=O)CC[C@@H]12
IC50 (Aromatase [13]): 190 nM

C[C@]12CC[C@H]3[C@@H](Cc4noc5c4[C@]3(C)CCC5=O)[C@@H]1CC[C@@H]2O
IC50 (Aromatase [4]): 18600 nM
inhibition (INH) (Aromatase [5]): 50%

C[C@]12CC[C@H]3[C@@H](CCC4=C(F)C(=O)CC[C@@H]43)[C@@H]1CCC2=O
Ki (Aromatase [2]): 90 nM

C[C@]12CCC(=O)C=C1[C@@H](Br)C[C@@H]1[C@@H]2CC[C@]2(C)C(=O)CC[C@@H]12
inhibition at […] (Aromatase [10]): 45%

C[C@]12C=CC(=O)C=C1C=C(c1ccccc1)[C@@H]1[C@@H]2CC[C@]2(C)C(=O)CC[C@@H]12
Ki (Aromatase [17]): 2220 nM

C[C@]12CCC(=O)C(Oc3ccccc3)=C1C[C@@H](Sc1ccccc1)[C@@H]1[C@@H]2CC[C@]2(C)C(=O)CC[C@@H]12
IC50 (Aromatase [13]): 1650 nM

C[C@]12CCC(=O)C=C1C[C@@H](Sc1cccc3ccccc13)[C@@H]1[C@@H]2CC[C@]2(C)C(=O)CC[C@@H]12
Ki (Aromatase [9]): 24.1 nM

COc1ccc([C@@H]2[C@H]3C[C@H]4[C@@H]5CCC6=CC(=O)C=C[C@]6(C)[C@H]5CC[C@]4(C)C3=NN2C)cc1
IC50 (Aromatase [3]): 1820 nM

C[C@]12CCC(=O)C(Sc3ccccc3)=C1C=C[C@@H]1[C@@H]2CC[C@]2(C)C(=O)CC[C@@H]12
Ki (Aromatase [12]): 9.8 nM

C[C@@]12CCC[C@H]1[C@@H]1CCC3=CC(=O)C=C[C@]3(C)[C@H]1CC2
Ki (Aromatase [7]): 260 nM

C[C@]12C=CC(=O)C(Sc3ccccc3)=C1CC[C@@H]1[C@@H]2CC[C@]2(C)C(=O)CC[C@@H]12
Ki (Aromatase [12]): 9.8 nM

C[C@]12CCC(=O)C(SCF)=C1CC[C@@H]1[C@@H]2CC[C@]2(C)C(=O)CC[C@@H]12
IC50 (Aromatase [15]): 800 nM

C[C@]12C=CC(=O)C=C1C[C@@H](Sc1ccc3ccccc3c1)[C@@H]1[C@@H]2CC[C@]2(C)C(=O)CC[C@@H]12
Ki (Aromatase [8]): 12 nM

CN(C)c1cccc2c(S(=O)(=O)Nc3ccc(S[C@@H]4CC5=CC(=O)CC[C@]5(C)[C@H]5CC[C@]6(C)C(=O)CC[C@H]6[C@H]45)cc3)cccc12
Ki (Aromatase [9]): 24.1 nM

C[C@]12CC[C@H]3[C@@H](CCC4=CC(=O)[C@H]5C[C@@H](O)[C@]43C5)[C@@H]1CCC2=O
Ki (Aromatase [11]): 870 nM

C[C@]12C=CC(=O)C=C1C=C(CCc1ccccc1)[C@@H]1[C@@H]2CC[C@]2(C)C(=O)CC[C@@H]12
Ki (Aromatase [17]): 172 nM

COc1ccc([C@@H]2[C@H]3C[C@H]4[C@@H]5CCC6=CC(=O)C=C[C@]6(C)[C@H]5CC[C@]4(C)C3=NN2c2ccccc2)cc1
IC50 (Aromatase [3]): 1820 nM

C[C@]12CC[C@H]3[C@@H](CCC4=CC(=O)[C@H]5COC[C@]43C5)[C@@H]1CCC2=O
Ki (Aromatase [11]): 17.6 nM

C[C@]12C=CC(=O)C(O)=C1CC[C@@H]1[C@@H]2CC[C@]2(C)C(=O)CC[C@@H]12
inhibition (INH) (Aromatase [18]): 30%
inhibition (INH) (Aromatase [19]): 30%

C[C@]12C=CC(=O)C(O)=C1C=C[C@@H]1[C@@H]2CC[C@]2(C)C(=O)CC[C@@H]12
inhibition (INH) (Aromatase [18]): 30%
inhibition (INH) (Aromatase [19]): 30%

C[C@]12CCC(=O)C(O)=C1C=C[C@@H]1[C@@H]2CC[C@]2(C)C(=O)CC[C@@H]12
inhibition (INH) (Aromatase [18]): 30%
inhibition (INH) (Aromatase [19]): 30%

C[C@]12CCC(=O)C=C1C[C@@H](Sc1ccc3ccccc3c1)[C@@H]1[C@@H]2CC[C@]2(C)C(=O)CC[C@@H]12
Ki (Aromatase [9]): 24.1 nM

C[C@]12CC[C@H]3[C@@H](CCC4=CC(=O)C=C[C@@]43C)[C@@H]1CC[C@@H]2O
Ki (Aromatase [7]): 260 nM

C[C@]12CC[C@H]3[C@@H](CCC4=C(O)C(=O)CC[C@@]43C)[C@@H]1CC(=O)OC2
inhibition at 1 µM (Aromatase [20]): 34.8%

C[C@@H]1OC(=O)C[C@H]2[C@@H]3CCC4=C(O)C(=O)CC[C@]4(C)[C@H]3CC[C@]12C
inhibition at 1 µM (Aromatase [20]): 23.3%

C[C@]12C=CC(=O)C=C1C[C@@H](Sc1ccc(Br)cc1)[C@@H]1[C@@H]2CC[C@]2(C)C(=O)CC[C@@H]12
Ki (Aromatase [8]): 12 nM

Reference: ChEMBL document CHEMBL3751755, “Developing steroidal aromatase inhibitors-an effective armament to win the battle against breast cancer” (Eur J Med Chem, 2015)
